# Results taken from ChEMBL document CHEMBL5038631, “2-(2-Hydroxyethyl)piperazine derivatives as potent human carbonic anhydrase inhibitors: Synthesis, enzyme inhibition, computational studies and antiglaucoma activity” (Eur J Med Chem, 2022).
# Molecular target: Carbonic anhydrase 9 (Homo sapiens, UniProt Q16790)
# Assay: Inhibition of human CA9 incubated for 15 mins prior to testing by phenol red dye based stopped flow CO2 hydration assay
row,Structure (SMILES),Ki
1,NS(=O)(=O)c1ccc(C(=O)N2CCNC[C@H]2CCO)cc1,60.5 nM
2,NS(=O)(=O)c1ccc(C(=O)N2CCN[C@H](CCO)C2)cc1,53.3 nM
3,CN1CCN(C(=O)c2ccc(S(N)(=O)=O)cc2)[C@H](CCO)C1,24.9 nM
4,CN1CCN(C(=O)c2ccc(S(N)(=O)=O)cc2)[C@@H](CCO)C1,31.2 nM
5,NS(=O)(=O)c1ccc(C(=O)N2CCNC[C@@H]2CCO)cc1,51.9 nM
6,CN1CCN(C(=O)c2ccc(S(N)(=O)=O)cc2)C[C@H]1CCO,6.8 nM
7,NS(=O)(=O)c1ccc(C(=O)N2CCNC(CCO)C2)cc1 (racemic),34.4 nM

# Other lines, results leading:
row,Ki,Structure (SMILES)
1,14.7 nM,NS(=O)(=O)c1ccc(C(=O)N2CCN(Cc3ccccc3)C[C@@H]2CCO)cc1
2,35.2 nM,NS(=O)(=O)c1ccc(C(=O)N2CCN(Cc3ccccc3)C[C@H]2CCO)cc1
3,59.9 nM,NS(=O)(=O)c1ccc(C(=O)N2CCN(Cc3ccccc3)[C@H](CCO)C2)cc1
4,6.8 nM,CN1CCN(C(=O)c2ccc(S(N)(=O)=O)cc2)CC1CCO (racemic)
5,28.8 nM,NS(=O)(=O)c1ccc(C(=O)N2CCN(Cc3ccccc3)C(CCO)C2)cc1 (racemic)
